Measurements reported in EP0195397A1, “m-Cyanophenethanolamines as animal growth promoters and antilipogenic agents” (AMERICAN CYANAMID COMPANY, priority 1985, dated 1986).
Read-outs that look alike come from different tables or passages of the source.

Key:
[1] = Evaluation of test compounds as animal growth promoters and antilipogenic agents - mouse test; format: in vivo, CFI female mice; conditions: 12-day test period; for Gain (grams): weight gain per cage of ten mice; for % Reduction in fat pad weight vs controls: right uterine fat pad, minus sign = reduction
Description: CFI female mice from Carworth Farms are received when they are six-weeks old. They are housed ten to a cage in air-conditioned rooms (22 °C to 25 °C) with automatically-controlled lights, 14 hours on and ten hours off. The basal diet used in these studies is Purina Laboratory Chow (see description below) which is supplied ad libitum. The following is a description of the diet to which the growth-promoting compounds were added. Thirteen days after arrival, the mice are weighed in groups of ten and assigned at random to the different treatments. Each of the treatments is tested in three replicates, i.e., in three cages of ten mice each. There are ten cages of ten control mice each. Drugs are mixed in the diet at the dosage level indicated. Feed and water are offered ad libitum for a 12-day test period. Feed spilled is collected during the test period. At the end of the test period, the collected feed is weighed, and the mean feed consumption per cage of ten mice is determined for each treatment. The mice are weighed as a group of ten, and the weight gain determined. The mice are sacrificed by cervical dislocation. The right uterine fat pad of each mouse is removed. The fat pads for each cage of ten mice are weighed as a unit. Reduction in fat pad weights of animals is generally indicative of a reduction of total body fat of the treated animals.

[2] = molecular target: T1, Beta-1 adrenergic receptor membranes (Meleagris gallopavo, UniProt P07700); test: Beta-1 adrenergic activity by (H3) dihydroalprenolol radioligand binding to receptor membranes; design: species or system turkey
T1 construct: Freshly drawn heparinized whole blood from turkeys and rats is centrifuged; from tissue; host or cells: erythrocyte membranes from freshly drawn turkey blood
Description: Beta-1 adrenergic activity of experimental compounds is identified by radioactive ligand-binding studies by using beta adrenergic receptor membranes and adrenergic antagonist (H3) dihydroalprenolol (DHA). Binding of (H3) DHA to membrane fractions is assayed by filtration on glass fiber filters. Specific binding is defined as total radioactivity bound minus nonspecific bound radioactivity, i.e., binding in the presence of 100 µM non-radioactive DHA. Results are expressed as the concentrations of the compound required to displace […] radioactive ligand from binding of beta adrenergic receptors (K-50).
In these tests, beta adrenergic receptor membranes are incubated with radioactive dihydroalprenolol (H3 DHA) and experimental compounds. The bound radio- ligand is separated by filtration on glass fiber filters and counted by scintillation counter.
Beta-1 adrenergic receptor membranes are isolated from turkey and rat erythrocytes respectively using the procedures of: • Hancock, A., DeLean, A., Lefkowitz, R. J. Mol. Pharmacol. 16:1, 1979; • DeLean, A, Hancock A., Lefkowitz, R. J. Mol. Pharmacol. 21:5, 1979; or • Lefkowitz, R. J., Stadel, J. M., and Caron, M. G. Ann. Rev. Biochem 52:157, 1983.
Freshly drawn heparinized whole blood from turkeys and rats is centrifuged for five minutes ([…]). The plasma is withdrawn; the remaining erythrocytes are suspended in 150mM sodium chloride solutions and centrifuged. The cells are resuspended and centrifuged twice more. […] The protein concentration of receptor membranes is determined by the biuret method.
To duplicate incubation, tubes are added 200 µl suspended membranes (200 µg protein), 25 µl of compound in solution or buffer and 25 µl (H3) dihydroalprenolol ([…]). […] The filters are rinsed three times with 5 mL of cold buffer (145 mM NaCl, 1 mM ethylenediaminetetraacetic acid, and 10 mM tris, pH 7.4) and subsequently counted by liquid scintillation counter in 10 mL of aquasol. […]

[3] = concentration required to displace 50% radioactive ligand ((H3) DHA), 23°C, one hour, read-out: β1 K-50

T1 sequence (P07700 whole entry): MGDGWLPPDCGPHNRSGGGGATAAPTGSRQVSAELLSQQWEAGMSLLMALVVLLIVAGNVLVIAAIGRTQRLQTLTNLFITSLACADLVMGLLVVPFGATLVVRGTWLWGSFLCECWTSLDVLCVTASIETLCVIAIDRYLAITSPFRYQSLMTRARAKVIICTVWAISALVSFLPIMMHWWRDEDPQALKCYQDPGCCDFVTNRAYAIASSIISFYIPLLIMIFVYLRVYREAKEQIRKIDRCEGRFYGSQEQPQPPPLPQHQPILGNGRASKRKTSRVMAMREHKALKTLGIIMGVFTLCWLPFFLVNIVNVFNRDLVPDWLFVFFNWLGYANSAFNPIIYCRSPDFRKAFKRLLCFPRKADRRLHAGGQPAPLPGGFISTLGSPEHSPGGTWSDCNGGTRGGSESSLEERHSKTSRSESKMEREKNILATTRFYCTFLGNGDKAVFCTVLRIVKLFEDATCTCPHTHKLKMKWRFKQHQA

SMILES | Gain (grams) ([1]; 3 ppm in diet) | Gain (grams) ([1]; 6 ppm in diet) | Gain (grams) ([1]; 12 ppm in diet) | Gain (grams) ([1]; 25 ppm in diet) | Gain (grams) ([1]; 50 ppm in diet) | % Reduction in fat pad weight vs controls ([1]; 100 ppm in diet) [%] | Gain (grams) ([1]; 100 ppm in diet) | Gain (grams) ([1]; 200 ppm in diet) | % Reduction in fat pad weight vs controls ([1]; 25 ppm in diet) | % Reduction in fat pad weight vs controls ([1]; 50 ppm in diet) [%] | IC50 [2] [µM] | IC50 [2, 3] [µM]
CC(C)NCC(O)c1cccc(C#N)c1 (stereo not drawn) [the 2nd table drawing] | 32.4 | 23.4 | 29.4 | 37.1 | 37.4 | -9.1 | 37.3 | 39.0 | – | – | – | –
CC(C)(C)NCC(O)c1cccc(C#N)c1 (stereo not drawn) [the 3rd table drawing] | 29.3 | 37.4 | 30.5 | 35.9 | 41.1 | -16.9 | 36.1 | 33.2 | +5.2% | -11.6 | – | –
CC(C)(C)NCC(O)c1cc(Cl)c(N)c(Cl)c1 (stereo not drawn) [Clenbuterol, reference compound] | – | – | – | – | – | – | – | – | – | – | 0.977 | –
CC(C)NCC(O)c1cccc(C#N)c1 (stereo not drawn) [the 4th table, row 4 drawing] | – | – | – | – | – | – | – | – | – | – | – | > 100
CC(C)(C)NCC(O)c1cccc(C#N)c1 (stereo not drawn) [the 4th table, row 5 drawing] | – | – | – | – | – | – | – | – | – | – | – | > 100
